Source: PubChem BioAssay (NCI)
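In this assay, cells in 96-well plates receive the compound at five concentrations for 48 hours. Endpoints are linearly interpolated between the surrounding concentrations. The concentration for 50% growth inhibition is given as GI50. TGI denotes the concentration required for complete inhibition of growth.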

Tests used:
Assay in all cases: NCI-60 cell line screen, 48 h
ACHN renal = system: ACHN renal
CAKI-1 renal = system: CAKI-1 renal
CCRF-CEM leukemia = system: CCRF-CEM leukemia
HCT-116 colon = system: HCT-116 colon
HCT-15 colon = system: HCT-15 colon
HOP-92 NSCLC = system: HOP-92 NSCLC
IGROV1 ovarian = system: IGROV1 ovarian
SNB-75 CNS = system: SNB-75 CNS
TK-10 renal = system: TK-10 renal
UO-31 renal = system: UO-31 renal
U251 CNS = system: U251 CNS

Compound	TGI (ACHN renal)	TGI (CAKI-1 renal)	TGI (CCRF-CEM leukemia)	TGI (HCT-116 colon)	TGI (HCT-15 colon)	TGI (HOP-92 NSCLC)	TGI (IGROV1 ovarian)	TGI (SNB-75 CNS)	TGI (TK-10 renal)	TGI (UO-31 renal)	TGI (U251 CNS)	GI50 (ACHN renal)	GI50 (CCRF-CEM leukemia)	GI50 (HCT-15 colon)	GI50 (HOP-92 NSCLC)	GI50 (IGROV1 ovarian)	GI50 (SNB-75 CNS)	GI50 (TK-10 renal)	GI50 (UO-31 renal)
C#C[C@]1(O)[C@@H](CO)O[C@@H](n2ccc(N)nc2=O)[C@@H]1O	0.612 µM	0.122 µM	4.27 µM	> 33.9 µM	> 100 µM	12.7 µM	> 38.1 µM	1.82 µM	2.65 µM	0.395 µM	–	–	–	–	–	–	–	–	–
CN1C(=O)CN2C(Cl)(Cl)C2(c2ccccc2)c2cc(Cl)ccc21 (stereo not given)	> 100 µM	> 100 µM	> 100 µM	> 100 µM	> 100 µM	88.2 µM	> 100 µM	–	> 100 µM	> 100 µM	> 100 µM	–	–	–	–	–	–	–	–
Cc1cc(C)c(NC(=O)/C=C/c2ccccc2)c(C)c1	> 100 µM	–	> 100 µM	–	> 100 µM	> 100 µM	> 100 µM	> 100 µM	> 100 µM	> 100 µM	> 100 µM	–	–	–	–	–	–	–	–
CC(=O)N=c1ccc2nc(N)nn(O)c-2c1	> 100 µM	> 100 µM	> 100 µM	> 100 µM	> 100 µM	–	> 100 µM	> 100 µM	> 100 µM	> 100 µM	> 100 µM	–	–	–	–	–	–	–	–
COc1cc2c(cc1O)Cc1c-2[n+](C)cc2cc(OC)c(OC)cc12	> 100 µM	> 100 µM	> 24.9 µM	> 100 µM	> 100 µM	> 100 µM	> 100 µM	> 100 µM	> 100 µM	> 100 µM	21.5 µM	–	–	–	–	–	–	–	–
COc1cc(/C=C/C(=O)c2ccc(F)cc2)ccc1OCCCCCOc1cc2c(cc1OC)C(=O)N1CCCC1C=N2 (stereo not given)	0.368 µM	–	0.0258 µM	–	1.41 µM	0.575 µM	11.3 µM	0.187 µM	0.981 µM	3.64 µM	–	0.0197 µM	< 0.01 µM	0.0588 µM	0.158 µM	0.0646 µM	0.034 µM	0.123 µM	0.0473 µM
NC(Cc1ccccc1)c1nn[nH]n1 (stereo not given)	> 100 µM	> 100 µM	> 100 µM	> 100 µM	> 100 µM	> 100 µM	> 100 µM	> 100 µM	> 100 µM	> 100 µM	> 100 µM	–	–	–	–	–	–	–	–
O=[N+]([O-])c1ccc(CN=C2NNS(=O)(=O)c3ccccc32)cc1	> 100 µM	> 100 µM	> 100 µM	> 100 µM	> 100 µM	> 100 µM	> 100 µM	–	–	> 100 µM	> 100 µM	–	–	–	–	–	–	–	–
C/C(=N\O)C1CC2C=C(C#N)C1N(Cc1ccccc1)C2 (stereo not given)	> 100 µM	> 100 µM	> 100 µM	> 100 µM	> 100 µM	> 100 µM	–	> 100 µM	> 100 µM	> 100 µM	> 100 µM	–	–	–	–	–	–	–	–
CC(C)OC(=O)NNc1cccc(Cl)c1	> 100 µM	> 100 µM	> 100 µM	> 100 µM	> 100 µM	> 100 µM	–	> 100 µM	> 100 µM	> 100 µM	> 100 µM	–	–	–	–	–	–	–	–
C=CC(=O)NCNC(=O)C=C	> 100 µM	> 100 µM	> 100 µM	> 100 µM	> 100 µM	> 100 µM	> 100 µM	> 100 µM	> 100 µM	> 100 µM	> 100 µM	–	–	–	–	–	–	–	–
OCC1OC(n2cnc3c(SCc4ccccc4)ncnc32)C(O)C1O (stereo not given)	> 100 µM	> 100 µM	3.55 µM	> 100 µM	> 100 µM	> 79.9 µM	> 100 µM	> 100 µM	> 100 µM	> 100 µM	> 100 µM	–	–	–	–	–	–	–	–
[N-]=[N+]=CC(=O)OCC1NC(=O)C(COC(=O)C=[N+]=[N-])NC1=O (stereo not given)	> 100 µM	> 100 µM	> 100 µM	> 100 µM	> 100 µM	> 100 µM	> 100 µM	> 100 µM	> 100 µM	> 100 µM	> 100 µM	–	–	–	–	–	–	–	–
CCP(=O)(CC)C(Cl)(Cl)C(O)C(Cl)(Cl)Cl (stereo not given)	> 100 µM	> 100 µM	> 100 µM	> 100 µM	> 100 µM	> 100 µM	> 100 µM	> 100 µM	> 100 µM	> 100 µM	> 100 µM	–	–	–	–	–	–	–	–
